Test results taken from patent US20140303164A1, “THERAPEUTIC COMPOUNDS” (Gilead Sciences, Inc., priority 2013, published 2014).

Assays:
[1] = Test B: Cytotoxicity Assay; type: cell-based; settings: human, uninfected MT-4 cells, same protocol as Test A
Outline: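 Uninfected MT-4 cells (2000 per well) incubated with diluted compound at 37° C. for 5 days, following the antiviral protocol without HIV-IIIb.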

HIV-IIIb = assay: Test A: Antiviral Assay in MT4 Cells; type: cell-based, HIV-1; settings: for inhibition at 0.2 µM / inhibition at 2 µM: Human immunodeficiency virus 1, IIIB, MT4, 120 h; for inhibition at 0.2 µM: read-out: % inhibition at 0.2 μM; for inhibition at 2 µM: read-out: % inhibition at 2 μM
Protocol: Test A: Antiviral Assay in MT4 Cells
MT-4 cells were next mixed with HIV-IIIb at an m.o.i of 0.003 for 1 hour, after which time 35 μL of virus/cell mixture (2000 cells) was immediately added to each well containing 40 μL of diluted compound. The plates were then incubated at 37° C. for 5 days. […] Cell lysis was carried out by incubating at room temperature for 10 min and then chemiluminescence was read.

SMILES | CC50 at 5 days [1] [µM] | inhibition at 0.2 µM (HIV-IIIb) [%] | inhibition at 2 µM (HIV-IIIb) [%] | Response at 0.2 μM (HIV-IIIb; percent inhibition of virus-induced cell killing at 0.2 μM, comparison with previously published compounds (WO 2013/006738)) [%] | Response at 2 μM (HIV-IIIb; percent inhibition of virus-induced cell killing at 2 μM, comparison with previously published compounds (WO 2013/006738)) [%]
CC(C)(O)C#Cc1ccc(-c2cc(C(=O)NC3COC3)c3nccn3c2)c([C@H](Cc2cc(F)cc(F)c2)NC(=O)Cn2nc(C(F)(F)F)c3c2C(F)(F)[C@@H]2C[C@H]32)n1 [Compound 35D, 6-(2-((S)-1-(2-((3bS,4aR)-5,5-difluoro-3-(trifluoromethyl)-3b,4,4a,5-tetrahydro-1H-cyclopropa[3,4]cyclopenta[1,2-c]pyrazol-1-yl)acetamido)-2-(3,5-difluorophenyl)ethyl)-6-(3-hydroxy-3-methylbut-1-yn-1-yl)pyridin-3-yl)-N-(oxetan-3-yl)imidazo[1,2-a]pyridine-8-carboxamide] | 14.2 | 28 | 91 | – | –
CC(C)(O)C#Cc1ccc(-c2cccc3c(=O)[nH]ccc23)c([C@H](Cc2cc(F)cc(F)c2)NC(=O)Cn2nc(C(F)(F)F)c3c2C(F)(F)[C@@H]2C[C@H]32)n1 [Compound 24B, 2-((3bS,4aR)-5,5-difluoro-3-(trifluoromethyl)-3b,4,4a,5-tetrahydro-1H-cyclopropa[3,4]cyclopenta[1,2-c]pyrazol-1-yl)-N—((S)-2-(3,5-difluorophenyl)-1-(6-(3-hydroxy-3-methylbut-1-yn-1-yl)-3-(1-oxo-1,2-dihydroisoquinolin-5-yl)pyridin-2-yl)ethyl)acetamide] | 5.92 | 78 | 83 | – | –
Cn1nc(NS(C)(=O)=O)c2c(Cl)ccc(-c3ccc(-c4cnc(C(C)(C)C)s4)nc3[C@H](Cc3cc(F)cc(F)c3)NC(=O)Cn3nc(C(F)(F)F)c4c3C(F)(F)[C@@H]3C[C@H]43)c21 [Compound 178, N—((S)-1-(6-(2-(tert-butyl)thiazol-5-yl)-3-(4-chloro-1-methyl-3-(methylsulfonamido)-1H-indazol-7-yl)pyridin-2-yl)-2-(3,5-difluorophenyl)ethyl)-2-((3b-S,4aR)-5,5-difluoro-3-(trifluoromethyl)-3b,4,4a,5-tetrahydro-1H-cyclopropa[3,4]cyclopenta[1,2-c]pyrazol-1-yl)acetamide] | 14 | 95 | 100 | – | –
Cc1c(-c2ccc(C#CC(C)(C)O)nc2[C@H](Cc2cc(F)cc(F)c2)NC(=O)Cn2nc(C(F)F)c3c2C(F)(F)[C@@H]2C[C@H]32)ccc2n[nH]c(=O)n12 [Compound 38, 2-((3b-S,4aR)-3-(difluoromethyl)-5,5-difluoro-3b,4,4a,5-tetrahydro-1H-cyclopropa[3,4]cyclopenta[1,2-c]pyrazol-1-yl)-N—((S)-2-(3,5-difluorophenyl)-1-(6-(3-hydroxy-3-methylbut-1-yn-1-yl)-3-(5-methyl-3-oxo-2,3-dihydro-[1,2,4]triazolo[4,3-a]pyridin-6-yl)pyridin-2-yl)ethyl)acetamide] | 13.5 | 96 | 96 | – | –
Cn1nc(NC(=O)CN2CCCC2)c2c(Cl)ccc(-c3ccc(C#CC(C)(C)O)nc3[C@H](Cc3cc(F)cc(F)c3)NC(=O)Cn3nc(C(F)F)c4c3C(F)(F)[C@@H]3C[C@H]43)c21 [Compound 100, N—((S)-1-(3-(4-chloro-1-methyl-3-(2-(pyrrolidin-1-yl)acetamido)-1H-indazol-7-yl)-6-(3-hydroxy-3-methylbut-1-yn-1-yl)pyridin-2-yl)-2-(3,5-difluorophenyl)ethyl)-2-((3b-S,4aR)-3-(difluoromethyl)-5,5-difluoro-3b,4,4a,5-tetrahydro-1H-cyclopropa[3,4]cyclopenta[1,2-c]pyrazol-1-yl)acetamide] | 5.14 | 99 | 99 | – | –
CC(C)(O)C#Cc1ccc(-c2ccc(F)c(C(N)=O)c2)c([C@H](Cc2cc(F)cc(F)c2)NC(=O)Cn2nc(C(F)F)c3c2C(F)(F)CCC3(F)F)n1 [Compound 28, (S)-5-(2-(1-(2-(3 (difluoromethyl)-4,4,7,7-tetrafluoro-4,5,6,7-tetrahydro-1H-indazol-1-yl)acetamido)-2-(3,5-difluorophenyl)ethyl)-6-(3-hydroxy-3-methylbut-1-yn-1-yl)pyridin-3-yl)-2-fluorobenzamide] | 12.2 | – | – | 71 | 84
Cn1nc(NS(N)(=O)=O)c2c(Cl)ccc(-c3ccc(C#CC(C)(C)O)nc3[C@H](Cc3cc(F)cc(F)c3)NC(=O)Cn3nc(C(F)(F)F)c4c3C(F)(F)[C@@H]3C[C@H]43)c21 [Compound 119C, N—((S)-1-(3-(4-chloro-1-methyl-3-(sulfamoylamino)-1H-indazol-7-yl)-6-(3-hydroxy-3-methylbut-1-yn-1-yl)pyridin-2-yl)-2-(3,5-difluorophenyl)ethyl)-2-((3b-S,4aR)-5,5-difluoro-3-(trifluoromethyl)-3b,4,4a,5-tetrahydro-1H-cyclopropa[3,4]cyclopenta[1,2-c]pyrazol-1-yl)acetamide] | 9.24 | 99 | 99 | – | –
Cn1nc(NS(C)(=O)=O)c2cccc(-c3cnc(C#CC(C)(C)O)nc3[C@H](Cc3cc(F)cc(F)c3)NC(=O)Cn3nc(C(F)F)c4c3C(F)(F)CCC4(F)F)c21 [Compound 40, (S)-2-(3-(difluoromethyl)-4,4,7,7-tetrafluoro-4,5,6,7-tetrahydro-1H-indazol-1-yl)-N-(2-(3,5-difluorophenyl)-1-(2-(3-hydroxy-3-methylbut-1-yn-1-yl)-5-(1-methyl-3-(methylsulfonamido)-1H-indazol-7-yl)pyrimidin-4-yl)ethyl)acetamide] | 8.72 | 87 | 87 | – | –
CN1CCN(C(=O)Nc2nn(C)c3c(-c4ccc(C#CC(C)(C)O)nc4[C@H](Cc4cc(F)cc(F)c4)NC(=O)Cn4nc(C(F)(F)F)c5c4C(F)(F)[C@@H]4C[C@H]54)cccc23)CC1 [Compound 51, N-(7-(2-((S)-1-(2-((3bS,4aR)-5,5-difluoro-3-(trifluoromethyl)-3b,4,4a,5-tetrahydro-1H-cyclopropa[3,4]cyclopenta[1,2-c]pyrazol-1-yl)acetamido)-2-(3,5-difluorophenyl)ethyl)-6-(3-hydroxy-3-methylbut-1-yn-1-yl)pyridin-3-yl)-1-methyl-1H-indazol-3-yl)-4-methylpiperazine-1-carboxamide] | 11.1 | 95 | 95 | – | –
Cn1nc(N)c2cccc(-c3ccc(C#CC(C)(C)O)nc3[C@H](Cc3cc(F)cc(F)c3)NC(=O)Cn3nc(C(F)F)c4c3C(F)(F)[C@@H]3C[C@H]43)c21 [Compound 32, N—((S)-1-(3-(3-amino-1-methyl-1H-indazol-7-yl)-6-(3-hydroxy-3-methylbut-1-yn-1-yl)pyridin-2-yl)-2-(3,5-difluorophenyl)ethyl)-2-((3b-S,4aR)-3-(difluoromethyl)-5,5-difluoro-3b,4,4a,5-tetrahydro-1H-cyclopropa[3,4]cyclopenta[1,2-c]pyrazol-1-yl)acetamide] | 9.18 | 84 | 84 | – | –
Cn1nc(NS(C)(=O)=O)c2cccc(-c3ccc(C#CC(C)(C)N)nc3[C@H](Cc3cc(F)cc(F)c3)NC(=O)Cn3nc(C(F)(F)F)c4c3C(F)(F)[C@@H]3C[C@H]43)c21 [Compound 104, N—((S)-1-(6-(3-amino-3-methylbut-1-yn-1-yl)-3-(1-methyl-3-(methylsulfonamido)-1H-indazol-7-yl)pyridin-2-yl)-2-(3,5-difluorophenyl)ethyl)-2-((3bS,4aR)-5,5-difluoro-3-(trifluoromethyl)-3b,4,4a,5-tetrahydro-1H-cyclopropa[3,4]cyclopenta[1,2-c]pyrazol-1-yl)acetamide] | 7.46 | 100 | 100 | – | –
Cc1c(CCO)c(C2CC2)nn1CC(=O)N[C@@H](Cc1cc(F)cc(F)c1)c1nc(C#CC(C)(C)O)ccc1-c1ccc(Cl)c2c(NS(C)(=O)=O)nn(C)c12 [Compound 167, (S)—N-(1-(3-(4 chloro-1-methyl-3-(methylsulfonamido)-1H-indazol-7-yl)-6-(3-hydroxy-3-methylbut-1-yn-1-yl)pyridin-2-yl)-2-(3,5-difluorophenyl)ethyl)-2-(3-cyclopropyl-4-(2-hydroxyethyl)-5-methyl-1H-pyrazol-1-yl)acetamide] | 34.1 | 93 | 93 | – | –
CN(C)CC#Cc1ccc(-c2cccc3c(NS(C)(=O)=O)nn(C)c23)c([C@H](Cc2cc(F)cc(F)c2)NC(=O)Cn2nc(C(F)(F)F)c3c2C(F)(F)[C@@H]2C[C@H]32)n1 [Compound 61B, 2-((3bS,4aR)-5,5-difluoro-3-(trifluoromethyl)-3b,4,4a,5-tetrahydro-1H-cyclopropa[3,4]cyclopenta[1,2-c]pyrazol-1-yl)-N—((S)-2-(3,5-difluorophenyl)-1-(6-(3-(dimethylamino)prop-1-yn-1-yl)-3-(1-methyl-3-(methylsulfonamido)-1H-indazol-7-yl)pyridin-2-yl)ethyl)acetamide] | 14.3 | 96 | 96 | – | –
CC(C)(O)C#Cc1ccc(-c2cnc3[nH]ccc3c2F)c([C@H](Cc2cc(F)cc(F)c2)NC(=O)Cn2nc(C(F)(F)F)c3c2C(F)(F)[C@@H]2C[C@H]32)n1 [Compound 36C, 2-((3bS,4aR)-5,5-difluoro-3-(trifluoromethyl)-3b,4,4a,5-tetrahydro-1H-cyclopropa[3,4]cyclopenta[1,2-c]pyrazol-1-yl)-N—((S)-2-(3,5-difluorophenyl)-1-(3-(4-fluoro-1H-pyrrolo[2,3-b]pyridin-5-yl)-6-(3-hydroxy-3-methylbut-1-yn-1-yl)pyridin-2-yl)ethyl)acetamide] | 3.15 | 88 | 92 | – | –
